Experimental data reported in a melting point compilation (Tetko et al.; mined from patent text by program, amines drawn as free bases though some values may be those of a salt).

Row | Structure (SMILES) | melting point [°C]
1 | Brc1ccc(C=Cc2cc3ccccc3s2)s1 | 171 to 172
2 | CS(=O)(=O)Oc1ccc(-c2c3ccccc3c(Cl)c3sc4ccccc4c23)cc1 | 155 to 158
3 | CCCCNC(=O)Oc1ccc(Oc2ccc(Cl)cc2)cc1 | 106 to 108
4 | O=C(Cn1c(-c2ccc(Cl)cc2)nc2cccnc21)NC1CC1 | 231 to 232
5 | COC(=O)NC1=NCC(c2ccccc2Br)CN1 (configuration not stated) | 213 to 215
6 | O=C(CC1CCNCC1)Nc1cccc(-c2ccnc3c(C(=O)c4cccs4)cnn23)c1 | 216 to 220
7 | COC(=O)CCc1ccccc1CC1C2CCC(O2)C1c1nc(C(=O)CCCCCC2CCCCC2)co1 (configuration not stated) | 170 to 171
8 | COc1cc(Br)c2nc(-c3ccc(OC)c(F)c3)cc(O)c2c1 | 200 to 201
9 | O=C(NCc1ccccn1)c1nc(-c2ccccc2)c(-c2ccc(=O)[nH]n2)s1 | 221 to 222
10 | Cc1c(Cl)c(Cl)c(Cl)c(Cl)c1C=O | 187 to 194
11 | C=Cc1cc(C(F)(F)F)ccc1-c1cc(Oc2cccc3sc(NC(C)=O)nc23)ncn1 | 234 to 237
12 | COc1ccc(C(=O)c2ccc(OCCc3nc(-c4ccccc4)oc3C)cc2)c(OC(C)(C)C(=O)O)c1 | 81 to 82
13 | O=C(CCc1cccnc1)NCCCCC1CCN(C(=O)Nc2cccc3ccccc23)CC1 | 143 to 144
14 | O=c1c(-c2ccccc2)cc(Cl)c2n1C=CSc1ccsc1-2 | 149 to 151
15 | COCc1nc2c([N+](=O)[O-])cc(Br)cc2n1C | 145 to 147
16 | Nc1nc(Cl)cc(NCC2(CO)CC(O)C2)n1 (configuration not stated) | 136 to 139
17 | O=C(O)CP(=O)(O)C[C@H](Cc1ccccc1)NC(=O)c1ccccc1 | 105 to 107
18 | O=[N+]([O-])c1ccc(F)cc1CCN1CCN(c2nsc3ccccc23)CC1 | 131
19 | N#Cc1c(Cl)ccc([N+](=O)[O-])c1N | 181 to 184
20 | CSc1ccc(COc2c(C)c(C)c3c(c2C)C(c2ccc(C(C)C)cc2)C(C)(C)O3)cc1 (configuration not stated) | 118 to 120
21 | Cc1ccc(OCC(O)CNC(C)C)c([N+](=O)[O-])c1[N+](=O)[O-] (configuration not stated) | 122 to 124
22 | C=CCn1c(=O)n(CCCCO)c2nc(N)nc(Cl)c21 | 132 to 133
23 | COc1c(NC(=O)c2ccc(C)c(-n3cc(C(=O)O)nn3)c2)cc(C(C)(C)C)cc1NS(C)(=O)=O | 222 to 224
24 | COC(=O)CC1=C(C)Cc2cc(F)c(OC)cc21 | 61 to 62
25 | COc1ccc(C(O)CNCCN)cc1 (configuration not stated) | 68

Row | Structure (SMILES) | melting point [°C]
26 | CCC(=O)NCCc1c(-c2ccccc2)nn2ccc3c(c12)CCO3 | 169 to 170
27 | CC(=O)ONC(=O)N1CCC(=Cc2cc(C(C)(C)C)c(O)c(C(C)(C)C)c2)C1=O | 165 to 166
28 | COCCOc1ccc(CC(OC)C(=O)O)c(Oc2ncc(C(F)(F)F)cc2Cl)c1 (configuration not stated) | 93 to 96
29 | CCCCNC(=O)NS(=O)(=O)c1ccccc1CCl | 104 to 106
30 | CCc1sc2nc(C(=O)OC)cn2c1C | 94 to 95
31 | COC(=O)C1(O)Cc2cc(Cl)ccc2C1=O (single isomer, unassigned; (+)) | 163 to 165
32 | Oc1cc2c(cc1CCCCSc1cccnc1)OCC2 | 130 to 131
33 | CSc1nc(=O)n(CCO)cc1F | 161 to 162
34 | COC(=O)C1CCC2C3CCC4CC(=O)CCC4(C)C3C(NC3CCCCC3)CC12C (configuration not stated) | 93 to 94
35 | Cc1nc2n(c(=O)c1CCCl)CCCN2Cc1ccccc1 | 114
36 | O=S(=O)(c1ccc(Cl)cc1)C(c1cc(F)ccc1F)c1cc(Cl)ncc1Cl (configuration not stated) | 147 to 148
37 | CC(C)(C)OC(=O)N1CCC[C@H]1C(=O)O[C@H]1CO[C@H]2[C@H]1OC[C@H]2O[N+](=O)[O-] | 109 to 111
38 | CC1(c2ccc(-c3ccccc3)cc2)OC(=O)C(OCc2ccccc2)=C1O (configuration not stated) | 182 to 183
39 | O=C(C=Cc1cccs1)C=Cc1cccs1 | 115 to 117
40 | CCn1cc(C(=O)O)c(=O)c2cc(F)c(N3CCNC(COc4ccccc4)C3)cc21 (configuration not stated) | 198 to 200
41 | Cc1cc(C)c(Nc2nc(C)ncc2S(=O)(=O)c2ccc(OCc3ccccc3)cc2)c(C)c1 | 166 to 168
42 | CC1(C2CCC3C4C=CC5=CC(=O)C6OC6C5(C)C4CCC32C)OCCO1 (configuration not stated) | 137 to 138
43 | COc1cc(N(C)C)ccc1C(=O)NC1CCN(C(C)CC(C(=O)N(C)C)(c2ccccc2)c2ccccc2)CC1O (configuration not stated) | 211
44 | O=C(O)COc1cc2c(c(Cl)c1Cl)C(=O)c1ccccc1-2 | 305 to 306
45 | Cc1ccc2c(c1)c(N1CCN(C(=O)c3cccs3)CC1)c(C#N)c(=O)n2Cc1ccccc1 | 183
46 | COc1cc(N2CCCN(C3CCN(CCO)CC3)CC2)ccc1Nc1ncc2ccc(-c3ccccc3OC)n2n1 | 77 to 94
47 | COc1cccc2c1OC(CN1CC=C(c3c[nH]c4ccc(C#N)cc34)CC1)CO2 (configuration not stated) | 235 to 238
48 | Nc1ccnc(Cl)c1Cl | 146 to 148
49 | O=C(Cc1ccc(OCc2cccc(C(=O)O)c2)cc1)NC1(C(=O)O)Cc2ccc(-c3ccc(Cl)cc3)cc2C1 (configuration not stated) | 220 to 222
50 | N#Cc1ccc(-c2ncc(Br)cn2)cc1 | 222

Row | Structure (SMILES) | melting point [°C]
51 | C#CCOc1ccc2c(Cl)nnc(C)c2c1 | 178 to 180
52 | C=C=CS(=O)(=O)c1ncn(C(=O)N(CC)CC)n1 | 98 to 100
53 | CC(C)n1nc(-c2cnc(NCc3ccccn3)nc2-c2ccccc2)ccc1=O | 143 to 144
54 | CSc1cn(C)c2c(-c3ccccc3)csc2c1=O | 204 to 206
55 | COC(=O)c1ccc(N(N)C(=O)c2ccc(Cl)c(S(N)(=O)=O)c2)c([N+](=O)[O-])c1 | 144 to 147
56 | CCCCN(Cc1ccc(-c2ccccc2-c2nnn[nH]2)cc1)c1nc(C)ccc1C(=O)O | 175 to 177
57 | O=C(Nc1ccc(C(=O)N2Cc3cccn3Cc3ccccc32)cc1)c1ccccc1Cl | 228 to 230
58 | C#CCNc1nc2ccc(OC(F)(F)F)cc2s1 | 138 to 140
59 | COc1ccc(C(=O)N[C@H](C(=O)N2CCC[C@H]2C(=O)N[C@@H](C(C)C)[C@@H](O)C(F)(F)F)C(C)C)cc1 | 168 to 170
60 | CCNC(=O)n1nc(Oc2ncc(Cl)cc2Cl)cc1C | 74 to 76
61 | O=S1c2ccccc2C(CCCl)(CCCl)c2ccccc21 | 126 to 127
62 | CS(=O)(=O)Nc1ccc(F)c(C(=O)C[N+](=O)[O-])c1 | 174 to 176
63 | COc1cccc(C(=O)Nc2c[nH]nc2C(=O)NCCC#N)c1 | 118 to 121
64 | N#CCNC(=O)C(=O)Oc1ccc([N+](=O)[O-])cc1 | 123 to 124
65 | CC(C)n1nc(-c2cc(Cl)c(N)nc2-c2ccccc2)ccc1=O | 207 to 208
66 | CNC(=O)c1cc(NC(=O)c2ccc(C)c(Nc3nccc(N4C=CC=NC4)n3)c2)cc(N2CCOCC2)c1 | 153 to 156
67 | Cc1ccccc1C(=O)Nc1ccc(C(=O)N2CCS(=O)(=O)c3ccccc32)cc1 | 219 to 220
68 | C=C(C)n1c(=O)n(CCN2CCC(N(C)C(=O)c3ccccc3)CC2)c2ccccc21 | 120 to 122
69 | O=C(O)C1CCN(Cc2ccc(Cl)c(Cl)c2)CC1 | 232
70 | Cc1ccc(-c2ccc(C(=O)Nc3ccc4cc(CN5CCCC5)cnc4c3C)c(F)c2)cc1 | 180 to 182
71 | Cc1nnc(NCCN2CCN(c3ncccn3)CC2)c2cc3ccccn3c12 | 280 to 283
72 | Nc1ncc(Sc2ccc(O)cc2)s1 | 187 to 188
73 | CC(C)c1cc(C(C)C)c(C=CC(=O)c2ccc(C(C)C)c(OS(N)(=O)=O)c2C(C)C)c(C(C)C)c1 | 144 to 148
74 | O=C1c2ccc([N+](=O)[O-])cc2C(=O)N1CCc1ccccc1 | 142 to 143
75 | O=C1NCCN1CCN1CCC(c2noc3cc(F)ccc23)CC1 | 137 to 141

Row | Structure (SMILES) | melting point [°C]
76 | CCC1N=C(c2ccccc2Cl)c2cc(CC(=O)OC)sc2-n2c(C)nnc21 (configuration not stated) | 134 to 137
77 | O=c1cc(-c2ccoc2)c2ccc(COc3cc(F)cc(-c4ccccc4)c3)cc2o1 | 105 to 107
78 | CCN(CC)c1ccc2cc(N)c(=O)oc2c1 | 85 to 87
79 | COc1cc(-c2cc(C(F)(F)F)nn2-c2ccc(S(N)(=O)=O)c(F)c2)ccc1-c1cscn1 | 97 to 99
80 | COc1ccc(C2=NN(CC=Cc3ccccc3)C(=O)C3CCCCC23)cc1OC (configuration not stated) | 76 to 79
81 | COC(=O)[C@H](CSSC[C@H](NC(=O)[C@@H]1CCC(=O)N1)C(=O)OC)NC(=O)[C@@H]1CCC(=O)N1 | 160 to 162
82 | COc1cc(O)ccc1C1=NC2=CCC(=O)NC2=N1 | > 270
83 | CCCCCCCCCCCCCCc1ccc(OC)cc1 | 38
84 | CN(C)NC(=O)C1(N2C(=O)c3cccc(Cl)c3C2=O)CCCCC1 | 184 to 185
85 | CSc1ccc(C2=C(Cl)C(=O)OC2)cc1 | 156 to 158
86 | O=C(NCc1cccs1)c1ccc(CN2C(=O)C3(COc4cc5c(cc43)CCO5)c3ccccc32)cc1 (configuration not stated) | 167 to 168
87 | O=C1C=C(Nc2cccc(F)c2)CCN1 | 188 to 190
88 | CC=CCN(Cc1cc(C)ccc1C)c1ncnc2c1ncn2C1OC(CO)C(O)C1O (configuration not stated) | 125 to 127
89 | Cn1c(C2CC2)nc2c(O[C@@H]3c4ccccc4C[C@H]3O)cc(C(=O)O)cc21 (relative stereo) | 132 to 134
90 | CNc1c(F)cc2c(=O)c(C(=O)O)cn(-c3ccc(F)c(N)c3)c2c1Cl | 162 to 166
91 | CCOC(=O)C1=C(C)NC(CCN(C)C)=C(C(=O)OCC)C1c1ccccc1/C=C/C(=O)OC(C)(C)C (configuration not stated) | 150 to 151
92 | COc1ccc(C2=NN(Cc3ccc(C(=O)O)cc3)C(=O)[C@H]3CCCC[C@@H]23)cc1OC1CCCC1 (relative stereo) | 189 to 190
93 | O=C(OCc1ccccc1)C1NN=C(c2ccc(C(F)(F)F)cc2)S1 (configuration not stated) | 99 to 100
94 | CCc1ccc(Br)c(CC)c1-n1cncc1C(=O)O | 224 to 227
95 | CCOCCCOc1ccc2c(c1)C(N(CC)S(C)(=O)=O)CC(C)(C)O2 (configuration not stated) | 72 to 74
96 | CC(C)(C)OC(=O)N1c2ccccc2CC1c1ccccc1N (configuration not stated) | 114 to 117
97 | O=C(N1CCOCC1)N1Cc2c(-c3nc4ccccc4o3)ncn2-c2ccccc21 | 288 to 290
